From US11331299B2, “Medicinal use of serrulatane diterpenes” (The University of Sydney, priority 2016, dated 2022)
Where two headings read alike, the source gives them in different places.

Test system: 280 human cancer cell lines
Assay: OncoPanel cell proliferation assay (10-day)
Format: cell-based
Conditions: Homo sapiens; for IC50: read-out: Cell Count IC50; for EC50: read-out: Cell Count EC50; for GI50: read-out: Cell Count GI50
[1] = HT-1080, HT-1080, Soft Tissue - Sarcoma
[2] = HUH-6-clone5, HUH-6 Clone 5, Liver
[3] = Hs 821.T, Soft Tissue - Sarcoma
[4] = Hs 888.Sk, Soft Tissue - Osteosarcoma

In the case of CC(C)=CCC[C@@H]1C(O)Oc2c(C)cc(O)c3c2[C@H]1CC[C@H]3C (some centres unmarked) [Compound 2, 5,18-epoxyserrulat-14-en-8,18-diol], the IC50 (HOS, Soft Tissue - Osteosarcoma) is reported as 4.82 µM, the EC50 (HPAF-II, Pancreas) is reported as 9.46 µM and the GI50 (HPAF-II, Pancreas) is reported as 9.6 µM. The IC50 (HPAF-II, Pancreas) was 9.62 µM, the EC50 (HT1197, HT-1197, Bladder) was 10.7 µM and the GI50 (HT1197, HT-1197, Bladder) was 10.3 µM. It also gave an IC50 (HT1197, HT-1197, Bladder) of 10.7 µM, an EC50 (HT, Lymphoma) of 6.51 µM and a GI50 (HT, Lymphoma) of 6.43 µM. It also gave an IC50 (HT, Lymphoma) of 6.51 µM, an EC50 (HT-3, Female GU - Cervix) of 17.6 µM and a GI50 (HT-3, Female GU - Cervix) of 18.6 µM. The IC50 (HT-3, Female GU - Cervix) was 19.3 µM, the EC50 (HT-29, HT-29, Colon) was 19.5 µM and the GI50 (HT-29, HT-29, Colon) was 19.4 µM. For the same molecule, the IC50 (HT-29, HT-29, Colon) was 19.5 µM, the EC50 [1] was 3.31 µM and the GI50 [1] was 3.3 µM. For the same molecule, the IC50 [1] was 3.31 µM, the EC50 (HT-1376, HT1376, Bladder) was 4.71 µM and the GI50 (HT-1376, HT1376, Bladder) was 4.47 µM. The IC50 (HT-1376, HT1376, Bladder) was 4.71 µM, the EC50 [2] was 15.5 µM and the GI50 [2] was 15.3 µM. It also gave an IC50 [2] of 15.5 µM, an EC50 (HeLa, Female GU - Cervix) of 16.6 µM and a GI50 (HeLa, Female GU - Cervix) of 16.5 µM. The IC50 (HeLa, Female GU - Cervix) was 16.6 µM, the EC50 (HepG2, HepG2, Liver) was 6.74 µM and the GI50 (HepG2, HepG2, Liver) was 6.86 µM. It also gave an IC50 (HepG2, HepG2, Liver) of 6.95 µM, an EC50 (Hs 229.T, Lung - NSCLC) of 29.3 µM and a GI50 (Hs 229.T, Lung - NSCLC) of 28.6 µM. The IC50 (Hs 229.T, Lung - NSCLC) was 29.8 µM, the EC50 (Hs 294T, Skin (Melanoma)) was 7.01 µM and the GI50 (Hs 294T, Skin (Melanoma)) was 6.72 µM. It also gave an IC50 (Hs 294T, Skin (Melanoma)) of 7.01 µM, an EC50 (Hs 445, Hs 445, Lymphoma) of 4.34 µM and a GI50 (Hs 445, Hs 445, Lymphoma) of 4.23 µM. It also gave an IC50 (Hs 445, Hs 445, Lymphoma) of 4.34 µM, an EC50 (Hs 611.T, Lymphoma) of 10.7 µM and a GI50 (Hs 611.T, Lymphoma) of 10.6 µM. For the same molecule, the IC50 (Hs 611.T, Lymphoma) was 10.7 µM, the EC50 (Hs 683, Hs 683, CNS - Glioma) was 29.8 µM and the GI50 (Hs 683, Hs 683, CNS - Glioma) was 28.3 µM. The IC50 (Hs 683, Hs 683, CNS - Glioma) was 29.8 µM, the EC50 (Hs 688(A).T, Skin (Melanoma)) was 11.6 µM and the GI50 (Hs 688(A).T, Skin (Melanoma)) was 12.2 µM. For the same molecule, the IC50 (Hs 688(A).T, Skin (Melanoma)) was 13.2 µM, the EC50 (Hs746T, HS 746T, Stomach) was > 30 µM and the GI50 (Hs746T, HS 746T, Stomach) was > 30 µM. For the same molecule, the IC50 (Hs746T, HS 746T, Stomach) was > 30 µM, the EC50 (Hs766T, Hs 766T, Pancreas) was 28.4 µM and the GI50 (Hs766T, Hs 766T, Pancreas) was 26.2 µM. The IC50 (Hs766T, Hs 766T, Pancreas) was 28.4 µM, the EC50 [3] was > 30 µM and the GI50 [3] was 13.9 µM. The IC50 [3] was > 30 µM, the EC50 [4] was 28.3 µM and the GI50 [4] was 27.9 µM. The IC50 [4] was 28.5 µM, the EC50 (Hs 934.T, Skin (Melanoma)) was > 30 µM and the GI50 (Hs 934.T, Skin (Melanoma)) was 24.1 µM. The IC50 (Hs 934.T, Skin (Melanoma)) was > 30 µM, the EC50 (Hs 936.T(C1), Skin (Melanoma)) was 3.62 µM and the GI50 (Hs 936.T(C1), Skin (Melanoma)) was 3.74 µM. It also gave an IC50 (Hs 936.T(C1), Skin (Melanoma)) of 3.76 µM, an EC50 (Hs-578T, Hs 578T, Breast) of 28.7 µM and a GI50 (Hs-578T, Hs 578T, Breast) of 28.2 µM. For the same molecule, the IC50 (Hs-578T, Hs 578T, Breast) was 28.7 µM, the EC50 (HuCCT-1, HuCCT1, Liver) was 22.6 µM and the GI50 (HuCCT-1, HuCCT1, Liver) was 22.6 µM. For the same molecule, the IC50 (HuCCT-1, HuCCT1, Liver) was 22.6 µM, the EC50 (HuP-T4, HuP-T4, Pancreas) was > 30 µM and the GI50 (HuP-T4, HuP-T4, Pancreas) was > 30 µM. For the same molecule, the IC50 (HuP-T4, HuP-T4, Pancreas) was > 30 µM, the EC50 (J82, Bladder) was 12.9 µM and the GI50 (J82, Bladder) was 12.7 µM. For the same molecule, the IC50 (J82, Bladder) was 12.9 µM, the EC50 (JAR, Placenta) was > 30 µM and the GI50 (JAR, Placenta) was > 30 µM. The IC50 (JAR, Placenta) was > 30 µM, the EC50 (JEG-3, JEG-3, Placenta) was > 30 µM and the GI50 (JEG-3, JEG-3, Placenta) was > 30 µM. The IC50 (JEG-3, JEG-3, Placenta) was > 30 µM, the EC50 (JIYOYE, Lymphoma) was 17.8 µM and the GI50 (JIYOYE, Lymphoma) was 17.7 µM. The IC50 (JIYOYE, Lymphoma) was 17.8 µM, the EC50 (JeKo-1, JeKo-1, Lymphoma) was 4.48 µM and the GI50 (JeKo-1, JeKo-1, Lymphoma) was 4.47 µM. The IC50 (JeKo-1, JeKo-1, Lymphoma) was 4.48 µM, the EC50 (Jurkat, Leukemia) was 2.66 µM and the GI50 (Jurkat, Leukemia) was 2.65 µM. The IC50 (Jurkat, Leukemia) was 2.66 µM, the EC50 (K562, K562, Leukemia) was 10.2 µM and the GI50 (K562, K562, Leukemia) was 10.1 µM. It also gave an IC50 (K562, K562, Leukemia) of 10.2 µM, an EC50 (KATO III, Stomach) of 8.98 µM and a GI50 (KATO III, Stomach) of 16.6 µM. The IC50 (KATO III, Stomach) was 16.8 µM and the EC50 (KHOS-240S, Soft Tissue - Osteosarcoma) was 4.59 µM.
